Reference: PMC7576778, “The tomato receptor CuRe1 senses a cell wall protein to identify Cuscuta as a pathogen” (Nature Communications, 2020)
Where “and” joins values, the source holds several entries; their conditions need not be identical. Identical values can stand only once.

What was measured:
[1] = target: Cuscuta Receptor 1 (CuRe1), myc-tagged (tomato (Solanum lycopersicum))
[2] = system: S. lycopersicum; experiment: Ethylene bioassay, leaf pieces of cultivated tomato; type: cell-based; settings: Suppl.Fig6c, peptides applied at 5 µM each, mean of the samples
Experimental: (§1) All obtained extracts or collected fractions after each purification step, as well as the isolated CrGRP or synthesized Crip peptides were tested for bioactivity in the ethylene assay as previously described. For this we cut leaf samples of analyzed plants in 3 × 3 mm squares and float them on a water surface. After incubation over night at RT, three leaf pieces are carefully collected into glass tubes (6 ml) with 500 µl water. Samples were treated as indicated as well as amounts of used extracts or concentrations of peptides. After treatment tubes were sealed with a rubber plug and incubated at RT on a horizontal shaker (85–100 rpm) for 3 h. All samples were analyzed with a Gaschromatograph (Shimadzu, GC-2014, glass column 3 mm × 1.6 m with Al2O3) by manually injecting 1 ml of the gaseous phase.

[3] = MS analysis of Crip21 treated with NH4OH or ethylamine; type: physicochemical; settings: 12.5% NH4OH or 70% ethylamine
Experimental: The Cuscuta factor (CuF) could be inactivated by incubating it either with 12.5% NH4OH or 70% ethylamine for 1 h at 45 °C.
49 Supplementary Fig. 5. Inactivation of Crip21 by treatments with NH4OH or Ethylamine; (a) Crip21
51 biosynthesis in CuRe1-expressing N. benthamiana leaves. Peptide samples were applied at
52 concentrations of 100 nM. Bovine serum albumin (BSA; 0.01 mg/ml) buffered in 25 mM MES (pH
53 5.7) was added as mock control. FW, fresh weight; ethylene measurements show means of three
54 technical replicates; error bars denote SD. (b) incubation with NH4OH or Ethylamine leads to
56 products with different masses.
(1 picture or pasted object on this page, not shown here)

[4] = system: leaves of S. lycopersicum, IL 12-2, IL 8-1-1 and S. pennellii; experiment: Hypersensitive response (HR) cell death after peptide infiltration into tomato leaves; type: in vivo; settings: 7 days
Experimental: For monitoring hypersensitive responses (HR) in leaves, 35S::CrGRP:GFP or 35S::GFP constructs were expressed in either transgenic, CuRe1-expressing or wt N. benthamiana plants. Leaves were infiltrated as described above using the defined volume of 200 µl; infiltration area was carefully labeled with a black marker. Pictures were taken 7 days post infiltration. For detecting HR-symptoms in tomato plants, two leaves of three plants (six leaves total; per introgression line or wildtype) were infiltrated with 100 µl of a 100 nM peptide solution; infiltrated leaf area was labeled with a pen immediately after infiltration and photographs were taken 7 days post peptide infiltration.

[5] = system: N. benthamiana wt; experiment: Ethylene bioassay, leaf pieces of wildtype N. benthamiana; type: cell-based
Experimental: as §1

[6] = system: CuRe1; experiment: Ethylene bioassay, leaf pieces of transgenic CuRe1-expressing N. benthamiana; type: cell-based, S. lycopersicum (tomato), expressed in N. benthamiana; design: ethylene measurement, average: unit not given here; settings: for activity in CuRe1-dependent ethylene induction (in words) / concentration at which ethylene production is triggered (minimum effective concentration): CuRe1-expressing N. benthamiana leaves; for concentration at which ethylene production is triggered (minimum effective concentration): dose-dependent ethylene bioassay; for Ethylene, MW: RepFig 3a_2, H2O
Experimental: as §1

[7] = system: CuRe1; experiment: Affinity-crosslinking of bio-Crip29 with CuRe1 in planta; type: binding, S. lycopersicum (tomato), expressed in N. benthamiana
Experimental: In vivo cross-linking of biotin-Crip29 (Crip29 aa-sequence: […]) to CuRe1 was performed as described; leaves of N. benthamiana expressing 35S::CuRe1:myc, or control plants (N. benthamiana expressing 35S::RLP23:myc) were infiltrated with biotinylated bio-Crip29 (10 nM in ddH2O) with or without unlabeled Crip21 (or unlabeled Crip82-106) (10 μM) as competitor or with flg22 peptide as competition control. Five minutes after peptide treatment 2 mM EGS (ethylene glycol bis(succinimidyl succinate) in 25 mM HEPES buffer (pH 7.5) was infiltrated into the same leaves for cross-linking of peptides to the receptor proteins. Twenty minutes after cross-linking, leaf samples were harvested and frozen in liquid nitrogen; immunoprecipitations were performed against the myc tag present at the c-terminus of CuRe1 using myc-trap agarose beads (ChromoTek, IZB Martinsried, Germany) as described above. All peptides, including biotinylated bio-Crip29, were synthesized by GenScript® and ordered with a purity of >95%. Biotinylated Crip29 was detected on blots by Streptavidine-conjugated Alkaline Phosphatase (Strep-AP, Roche diagnostics; Streptavidin-AP conjugate, Cat. No.: 11089161001, dilution: 1:1000 in 5% Albumin Fraction V, biotin-free).

[8] = RepFig3b_2, 0.01 nM, mean of 3 samples
[9] = RepFig3b_2, 0.1 nM, mean of 3 samples
[10] = RepFig3b_2, 1 nM, mean of 3 samples
[11] = RepFig3b_2, 10 nM, mean of 3 samples
[12] = RepFig3b_2, 100 nM, mean of 3 samples
[13] = Fig3a + Supl4, N. benthamiana CuRe1, peptide 1 nM, mean of 3 technical replicates
[14] = Fig3a + Supl4, N. benthamiana CuRe1, peptide 10 nM, mean of 3 technical replicates
[15] = Fig3a + Supl4, N. benthamiana CuRe1, peptide 100 nM, mean of 3 technical replicates

Substance: CrGRP82-106 synthetic peptide
- ethylene production in CuRe1-expressing N. benthamiana, dose series of peptide [1]: > 0.1 nM

Substance: Crip21: 21 aa cysteine-rich peptide, minimal epitope of C. reflexa glycine-rich protein CrGRP, synthesized (NCGNSGCCGGAYSNGQCKRCC)
- ethylene measurement, average [2]: 20.1539
- peptide mass signal after incubation with NH4OH or ethylamine [3]: disappearance of the peptide mass signal
- HR-type cell death, plants lacking CuRe1 ([4]; leaves of S. pennellii and IL8-1-1 infiltrated with 100 nM peptide): did not
- HR-type cell death, plants with functional CuRe1 ([4]; leaves of cultivated tomato (S. lycopersicum) or IL 12-2 infiltrated with 100 nM peptide): showed Crip21-dependent cell death
- ethylene, average ([5]; Fig3a + Supl4, amount printed as 1 µl, mean of 3): 0.2667
- ethylene, average ([5]; Suppl.Fig5, peptide samples 100 nM, mean of 3, values <0.2 not collected): 0.2
- ethylene measurement, average ([5]; Suppl.Fig6c, peptides applied at 5 µM each, mean of the samples): 0.1967
- ethylene-inducing bioactivity after treatment with NH4OH ([6]; 12.5% NH4OH, 1 h at 45 °C, read-out ethylene in CuRe1 N. benthamiana, peptide 100 nM): lost all of its activity
- ethylene-inducing bioactivity after treatment with ethylamine ([6]; 70% ethylamine, 1 h at 45 °C, read-out ethylene in CuRe1 N. benthamiana, peptide 100 nM): loose activity
- activity in CuRe1-dependent ethylene induction (in words) [6]: full activity
- concentration at which ethylene production is triggered (minimum effective concentration) [6]: > 0.1 nM
- ethylene, average ([6]; Fig3a + Supl4, N. benthamiana CuRe1, amount printed as 1 µl, mean of 3 technical replicates): 10
- ethylene, average [6, 8]: 0.2767
- ethylene, average [6, 9]: 1.39
- ethylene, average [6, 10]: 4.143
- ethylene, average [6, 11]: 8.283
- ethylene, average [6, 12]: 9.4
- ethylene, average ([6]; Suppl.Fig5, N. benthamiana CuRe1, peptide samples 100 nM, untreated or treated with 12.5% NH4OH / 70% ethylamine, mean of 9 samples, values <0.2 not collected): 3.844
- ethylene, average ([6]; Suppl.Fig6b, N. benthamiana CuRe1, 0.01 nM, mean of 3): 0.375 pmol/ml air
- ethylene, average ([6]; Suppl.Fig6b, N. benthamiana CuRe1, 0.1 nM, mean of 3): 0.45 pmol/ml air
- ethylene, average ([6]; Suppl.Fig6b, N. benthamiana CuRe1, 1 nM, mean of 3): 1.1 pmol/ml air
- ethylene, average ([6]; Suppl.Fig6b, N. benthamiana CuRe1, 10 nM, mean of 3): 2.8 pmol/ml air
- ethylene, average ([6]; Suppl.Fig6b, N. benthamiana CuRe1, 100 nM, mean of 3): 11.3 pmol/ml air
- ethylene, average ([6]; Suppl.Fig6b, N. benthamiana CuRe1, 1000 nM, 3 leaf pieces + 0.5 ml H2O / 6 ml tube, 3 h RT, mean of 3): 11.6 pmol/ml air
- ethylene measurement, average ([6]; Suppl.Fig6c, N. benthamiana Cure1, peptides applied at 5 µM each, mean of the samples): 9.564

Substance: GGGGSGHGGHGKGKN [GRP15, 15 aa peptide that served as fingerprint for identification of CrGRP]
- activity in CuRe1-dependent ethylene induction (in words) [6]: completely inactive
- ethylene, average [6, 13]: 0,2 and 0.2127
- ethylene, average [6, 14]: 0,3 and 0.2733
- ethylene, average [6, 15]: 0,6 and 0.5933
- ethylene, average ([6]; Fig3a + Supl4, N. benthamiana CuRe1, peptide 1000 nM, mean of 3 technical replicates): 0,4 and 0.3733
- activity at 100 µM ([6]; authors' reply in peer review file, refers to Supplementary Fig. 4): no activity

Substance: GKGKNCGNSGCCGGAYSNGQCKRCCAYKG [bio-Crip29]
- biotin labelling of CuRe1 immunoprecipitates ([7]; bio-Crip29 10 nM infiltrated, crosslinked with 2 mM EGS, myc-trap IP, Strep-AP blot): clear labelling
- activity in CuRe1-dependent ethylene induction (in words) [6]: as active as Crip21
- ethylene, average [6, 8]: 0.2933
- ethylene, average [6, 9]: 0.34
- ethylene, average [6, 10]: 1.017
- ethylene, average [6, 11]: 5.31
- ethylene, average [6, 12]: 7.693

Substance: GKNCGNSGCCGGAYSNGQCKRCCAY [CrGRP82-106, synthetic peptide representing CrGRP residues 82-106]
- ethylene, average ([5]; Fig3a + Supl4, peptide 100 nM, mean of 3): 0.2267
- concentration at which ethylene production is triggered (minimum effective concentration) [6]: ≥ 0.1 nM
- ethylene, average [6, 13]: 5.823
- ethylene, average [6, 14]: 8.73
- ethylene, average [6, 15]: 9.817
- Ethylene, MW ([6]; 1 nM, 3 h RT, mean of 3 samples): 1.5 pmol/ml air
- Ethylene, MW ([6]; 10 nM, 3 h RT, mean of 3 samples): 4.6 pmol/ml air
- Ethylene, MW ([6]; 100 nM, 3 h RT, mean of 3 samples): 8.9 pmol/ml air
- ethylene, average [6, 8]: 0.29
- ethylene, average [6, 9]: 1.63
- ethylene, average [6, 10]: 3.067
- ethylene, average [6, 11]: 8.457
- ethylene, average [6, 12]: 11.2833

Substance: non-modified Crip: unlabeled Crip21 or Crip82-106 (10 µM) used as competitor in crosslinking (NCGNSGCCGGAYSNGQCKRCC)
- competition of bio-Crip29 labelling of CuRe1 ([7]; bio-Crip29 10 nM with excess competitor (10 µM)): absent
